Reference: patent US8492374B2, “Azaazulene compounds” (Industrial Technology Research Institute, priority 2009, dated 2013)

Tests used:
KDR kinase = target: T1, KDR kinase (Homo sapiens, UniProt P35968); experiment: KDR kinase DELFIA assay (HTScan VEGFR-2 Kinase Assay Kit); assay type: biochemical; conditions: 20 uM ATP; for inhibition at 0.1 µM: 0.1 uM compound, read-out: Kinases inhibitory activities against KDR kinase, 0.1 uM; for inhibition at 1 µM: 1 uM compound, read-out: Kinases inhibitory activities against KDR kinase, 1 uM
T1 construct: human VEGFR-2 (Val789-Val1356); GST (N); purchased Cell Signaling Technology HTScan VEGFR-2 Kinase Assay Kit; host or cells: baculovirus expression system
T1 sequence (P35968 789-1356): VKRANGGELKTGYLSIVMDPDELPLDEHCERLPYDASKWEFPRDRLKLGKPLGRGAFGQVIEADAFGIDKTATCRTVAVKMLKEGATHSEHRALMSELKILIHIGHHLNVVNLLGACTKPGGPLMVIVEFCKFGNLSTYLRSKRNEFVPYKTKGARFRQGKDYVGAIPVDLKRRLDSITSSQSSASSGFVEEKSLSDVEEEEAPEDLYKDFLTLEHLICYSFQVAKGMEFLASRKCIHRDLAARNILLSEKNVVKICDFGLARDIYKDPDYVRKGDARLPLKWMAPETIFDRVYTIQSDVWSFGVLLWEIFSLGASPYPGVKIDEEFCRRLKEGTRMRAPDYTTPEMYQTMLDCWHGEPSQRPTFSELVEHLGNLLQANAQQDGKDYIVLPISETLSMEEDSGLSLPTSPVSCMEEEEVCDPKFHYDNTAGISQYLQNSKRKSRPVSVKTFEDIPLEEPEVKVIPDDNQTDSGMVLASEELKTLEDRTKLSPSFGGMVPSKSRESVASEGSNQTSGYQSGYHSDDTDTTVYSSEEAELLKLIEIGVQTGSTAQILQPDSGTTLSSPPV
Procedure: (§1) Azaazulene Compounds of this invention were treated for their efficacy in inhibiting activities of FLT-3, c-KIT and KDR kinases by biochemical DELFIA (Dissociation Enhanced Lanthanide FIA) assays according to the procedure described below. The assays were conducted by, Division of Cell Engineering, Biomedical Engineering Research Laboratories, Industrial Technology Research Institute, Bldg. 53, 195, sec. 4, Chung Hsing Rd. Chutung, Hsinchu, Taiwan 310, R.O.C.
The KDR assay was conducted following the protocol described in Protocol for HTScan™ VEGFR-2 Kinase Assay Kit (Cell Signaling Technology™).

c-KIT kinase = target: T2, c-KIT kinase (Homo sapiens, UniProt P10721); experiment: c-KIT kinase DELFIA assay (HTScan c-KIT Kinase Assay Kit); assay type: biochemical; conditions: 20 uM ATP; for inhibition at 0.1 µM: 0.1 uM compound; for inhibition at 1 µM: 1 uM compound
T2 construct: human c-KIT (Thr544-Val976); GST (N); purchased Cell Signaling Technology HTScan c-KIT Kinase Assay Kit; host or cells: baculovirus expression system
T2 sequence (P10721 544-976): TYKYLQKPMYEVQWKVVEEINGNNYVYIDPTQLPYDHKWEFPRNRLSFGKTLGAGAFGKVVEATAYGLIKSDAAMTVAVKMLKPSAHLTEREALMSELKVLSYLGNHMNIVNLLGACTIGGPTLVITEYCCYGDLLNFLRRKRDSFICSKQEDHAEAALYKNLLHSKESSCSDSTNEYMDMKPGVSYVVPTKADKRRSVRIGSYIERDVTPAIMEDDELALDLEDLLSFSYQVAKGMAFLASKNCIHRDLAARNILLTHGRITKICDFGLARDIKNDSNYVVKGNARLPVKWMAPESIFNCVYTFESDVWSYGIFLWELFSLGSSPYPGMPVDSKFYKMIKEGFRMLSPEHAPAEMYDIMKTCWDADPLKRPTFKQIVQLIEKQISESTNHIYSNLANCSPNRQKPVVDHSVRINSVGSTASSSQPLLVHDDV
Procedure: as §1
The c-KIT assay was conducted following the protocol described in Protocol for HTScan® c-KIT Kinase Assay Kit (Cell Signaling Technology®).

[1] = tested on: MV4-11 (FLT3-ITD) cell line; experiment: In vitro cell activity assay (MTT cell viability, 72 hours); assay type: cell-based; conditions: Homo sapiens, 72 hours at 37° C., 10,000 cells per well, read-out: IC50 against MV4-11
Procedure, shortened: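 Compound serial dilutions applied to MV4-11 (FLT3-ITD) cells, 10,000 per well, for 72 hours at 37° C. Viability by MTT, formazan dissolved in DMSO, absorbance at 600 nm; IC50 by nonlinear regression as concentration halving absorbance versus untreated cells.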

FLT-3 kinase = target: T3, FLT-3 kinase (Homo sapiens, UniProt P36888); experiment: FLT-3 kinase DELFIA assay (HTScan FLT-3 Kinase Assay Kit); assay type: biochemical; conditions: 20 uM ATP; for inhibition at 0.1 µM: 0.1 uM compound; for inhibition at 1 µM: 1 uM compound
T3 construct: human FLT-3 (Arg571-Ser993); GST (N); purchased Cell Signaling Technology HTScan FLT-3 Kinase Assay Kit; host or cells: baculovirus expression system
T3 sequence (P36888 571-993): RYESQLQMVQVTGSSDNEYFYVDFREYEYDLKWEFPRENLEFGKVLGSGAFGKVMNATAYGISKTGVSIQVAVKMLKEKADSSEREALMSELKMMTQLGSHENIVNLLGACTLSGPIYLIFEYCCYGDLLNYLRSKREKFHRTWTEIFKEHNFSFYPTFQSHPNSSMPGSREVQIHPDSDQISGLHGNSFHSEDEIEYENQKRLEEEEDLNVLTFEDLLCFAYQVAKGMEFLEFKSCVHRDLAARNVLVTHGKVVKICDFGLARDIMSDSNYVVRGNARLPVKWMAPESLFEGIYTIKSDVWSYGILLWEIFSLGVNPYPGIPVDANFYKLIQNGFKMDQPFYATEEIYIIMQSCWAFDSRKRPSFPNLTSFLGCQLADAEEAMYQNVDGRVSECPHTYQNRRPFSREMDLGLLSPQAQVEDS

Structure (SMILES)	inhibition at 0.1 µM (KDR kinase)	inhibition at 1 µM (KDR kinase)	inhibition at 0.1 µM (c-KIT kinase)	inhibition at 1 µM (c-KIT kinase)	IC50 [1]	inhibition at 0.1 µM (FLT-3 kinase)	inhibition at 1 µM (FLT-3 kinase)
O=c1[nH]c2cccccc-2c1-c1nc2cc([N+](=O)[O-])ccc2[nH]1 [Compound B5]	31.7%	45.3%	15.2%	56.8%	1300 nM	12.8%	27.1%
O=C(O)c1ccc2[nH]c(-c3c4cccccc-4[nH]c3=O)nc2c1 [Compound B7]	20.2%	46.1%	34.8%	57.3%	> 5000 nM		8.7%
O=c1[nH]c2cccccc-2c1-c1cn2ccccc2n1 [Compound B9]	0.5%	13.2%	16%	24.4%	1000 to 5000 nM	5.8%	19.1%

Now those with a lower IC50 [1], led by results:

inhibition at 0.1 µM (KDR kinase)	inhibition at 1 µM (KDR kinase)	inhibition at 0.1 µM (c-KIT kinase)	inhibition at 1 µM (c-KIT kinase)	IC50 [1]	inhibition at 0.1 µM (FLT-3 kinase)	inhibition at 1 µM (FLT-3 kinase)	Structure (SMILES)
29.7%	63.3%	32.6%	62.6%	916 nM	12.8%	45.1%	Nc1ccc2[nH]c(-c3c4cccccc-4[nH]c3=O)nc2c1 [Compound B6]
15.9%	63.8%	42.2%	75.5%	~500 nM	9.8%	68.5%	O=c1[nH]c2cccccc-2c1-c1nc2cc(O)ccc2[nH]1 [Compound B8]
